The text below walks through data of patent US11491245B2, “Gadolinium chelate compounds for use in magnetic resonance imaging” (BAYER PHARMA AKTIENGESELLSCHAFT, priority 2015, dated 2022).

What all share (type): physicochemical
One data set is described as follows: Water solubility. The settings on record: 10 mM Tris-HCl buffer, 20° C. On the procedure:
The water solubility of the compounds was determined at room temperature (20° C.) in 0.5 mL buffer solution (10 mM Tris-HCl) in the microcentrifuge tubes (Eppendorf, 2.0 mL safe-lock caps). The solid compound was added stepwise to the buffer solution. The suspension was mixed using a shaker (Heidolph Reax 2000) and treated 5 min in an ultrasound bath (Bandelin, Sonorex Super RK255H) The suspension was stored at room temperature (20° C.) over night and final Gadolinium concentration was determined by inductively coupled plasma mass spectrometry (ICP-MS).

Data set [1] in a line: Relaxivity measurements at 1.41 T. Conditions: 1.41 T, 37° C., normalized to Gd; for r1 FBS: fetal bovine serum. As to the method: Relaxivity measurements at 1.41 T were performed using a MiniSpec mq60 spectrometer (Bruker Analytik, Karlsruhe, Germany) operating at a resonance frequency of 60 MHz and a temperature of 37° C. The T1 relaxation times were determined using the standard inversion recovery (IR) method with a fixed relaxation delay of at least 5×T1. The variable inversion time (TI) was calculated automatically by the standard software of the MiniSpec mq60 (8 steps). The T2 measurements were done by using a Carr-Purcell-Meiboom-Gill (CPMG) pulse sequence, applying a relaxation delay of at least 5×T1.
Each relaxivity measurement was performed using three different Gd concentrations (3 concentrations between 0.05 and 2 mM). The T1 and T2 relaxation times of the example compounds 1-10 were measured in different media for example in water, fetal bovine serum (FBS, Sigma, F7524) and human plasma.
Human plasma preparation: For each experiment fresh blood was taken from a volunteer using 10 mL citrate-tubes (Sarstedt S-Monovette 02.1067.001, 10 mL, Citrate). The 10 mL citrate-tubes were carefully inverted 10 times to mix blood and anticoagulant and centrifuged for 15 minutes at 1811 g at room temperature (Eppendorf, Centrifuge 5810R).
The relaxivities ri (where i=1, 2) were calculated on the basis of the measured relaxation rates Ri in water and plasma: Ri=Ri(0)+ri[CGd], where Ri(0) represent the relaxation rate of the respective solvent and CGd the concentration of the compound normalized to the Gadolinium. The Gadolinium concentrations of the investigated solutions were verified by Inductively Coupled Plasma Mass Spectroscopy (ICP-MS Agilent 7500a, Waldbronn, Germany).

A short description of data set [2]: Chemical stability (autoclaving at 121° C.). The settings on record: 5 mmol Gd/L in 10 mM Tris-HCl buffer, pH 7.4, 121° C. for 20 min.
The nature of data set [3]: Relaxivity measurements at 3.0 T. Conditions: 37° C., normalized to Gd, average ± standard deviation. As to the method:
Relaxivity measurements at 3.0 T were performed with a whole body 3.0 T MRI Scanner (Philips Intera, Philips Healthcare, Hamburg, Germany) using a knee-coil (SENSE-Knee-8, Philips Healthcare, Hamburg, Germany). The sample tubes (CryoTubetm Vials, Thermo Scientific 1.8 mL, Roskilde, Denmark) were positioned in 3 rows of 4 and 5 tubes in a plastic holder in a box filled with water. The temperature was adjusted to 37° C. For the MRI sequence, the shortest possible echo-time (TE) with 7.46 milliseconds was used. The inversion times were chosen to optimize the sequence to measure T1 values corresponding to the estimated T1 range of all relaxation times of contrast media containing solutions. The following inversion times (TIs) were applied: 50, 100, 150, 200, 300, 500, 700, 1000, 1400, 2100, 3200, and 4500 milliseconds. The sequence was run with a constant relaxation delay of 3.4 seconds after the registration of the last echo (variable TR in the range from 3450 to 7900 milliseconds). For details of the fit procedure, see Rohrer et. al. (Invest. Radiol. 2005; 40, 11: 715-724). The experimental matrix of the phantom measurement was 320×320.
The relaxivities were evaluated using three different concentrations of each compound (3 concentrations between 0.05 and 2 mM).
The T1 relaxation times of the Example compounds 1-6 were measured in water and human plasma. Human plasma preparation: For each experiment fresh blood was taken from a volunteer using 10 mL citrate-tubes (Sarstedt S-Monovette 02.1067.001, 10 mL, Citrate). The 10 mL citrate-tubes were carefully inverted 10 times to mix blood and anticoagulant and centrifuged for 15 minutes at 1811 g at room temperature (Eppendorf, Centrifuge 5810R).
The relaxivities ri (where i=1, 2) were calculated on the basis of the measured relaxation rates Ri in water and plasma: Ri=Ri(0)+ri[CGd], where Ri(0) represent the relaxation rate of the respective solvent and CGd the concentration of the compound normalized to the Gadolinium (Table 2).

In the case of `CC(C(=O)NCC(=O)NCC(CNC(=O)CNC(=O)C(C)N1CCN(CC(=O)[O-])CCN(CC(=O)[O-])CCN(CC(=O)[O-])CC1)C(=O)NCCN(CCNC(=O)C(CNC(=O)CNC(=O)C(C)N1CCN(CC(=O)[O-])CCN(CC(=O)[O-])CCN(CC(=O)[O-])CC1)CNC(=O)CNC(=O)C(C)N1CCN(CC(=O)[O-])CCN(CC(=O)[O-])CCN(CC(=O)[O-])CC1)C(=O)CNC(=O)C(C)N1CCN(CC(=O)[O-])CCN(CC(=O)[O-])CCN(CC(=O)[O-])CC1)N1CCN(CC(=O)[O-])CCN(CC(=O)[O-])CCN(CC(=O)[O-])CC1.[Gd+3].[Gd+3].[Gd+3].[Gd+3].[Gd+3]` (stereo not shown) [Example 1], the Solubility in the data set “Water solubility” was over 1200 mmol Gd/L. For the same compound, in data set [1], the “r1 FBS” value amounted to 13.2 L/mmol/s, the r1 human plasma was 13.0 L/mmol/s and the r1 water amounted to 11.1 L/mmol/s. For the same compound, in data set [2], the “appearance of the solution after autoclaving” value is “still clear and colorless”. In data set [3], this compound returned a r1 human plasma of 10.8 ± 0.1 L/mmol/s and a r1 water of 9.5 ± 0.2 L/mmol/s.

Consider `CC(C(=O)NCC(=O)N(CCNC(=O)C1CN(C(=O)CNC(=O)C(C)N2CCN(CC(=O)[O-])CCN(CC(=O)[O-])CCN(CC(=O)[O-])CC2)CCN(C(=O)CNC(=O)C(C)N2CCN(CC(=O)[O-])CCN(CC(=O)[O-])CCN(CC(=O)[O-])CC2)C1)CCNC(=O)C1CN(C(=O)CNC(=O)C(C)N2CCN(CC(=O)[O-])CCN(CC(=O)[O-])CCN(CC(=O)[O-])CC2)CCN(C(=O)CNC(=O)C(C)N2CCN(CC(=O)[O-])CCN(CC(=O)[O-])CCN(CC(=O)[O-])CC2)C1)N1CCN(CC(=O)[O-])CCN(CC(=O)[O-])CCN(CC(=O)[O-])CC1.[Gd+3].[Gd+3].[Gd+3].[Gd+3].[Gd+3]` (stereo not shown) [Example 4, Pentagadolinium [4-(1-{[2-(bis{2-[({1,4-bis[({2-[4,7,10-tris(carboxylatomethyl)-1,4,7,10-tetraazacyclododecan-1-yl]propanoyl}amino)acetyl]-1,4-diazepan-6-yl}carbonyl)-amino]ethyl}amino)-2-oxoethyl]amino}-1-oxopropan-2-yl)-7,10-bis(carboxylatomethyl)-1,4,7,10-tetraazacyclododecan-1-yl]acetate], for which the Solubility in the data set “Water solubility” is over 1200 mmol Gd/L. Besides, in data set [1], the “r1 FBS” value worked out at 13.3 L/mmol/s, the r1 human plasma came to 13.2 L/mmol/s and the r1 water is 11.5 L/mmol/s. In data set [3], this compound registered a r1 human plasma of 11.8 ± 0.3 L/mmol/s and a r1 water of 10.1 ± 0.2 L/mmol/s.

Compound “Hexagadolinium 2,2′,2″,2′″,2″″,2′″″,2″″″,2′″″″,2″″″″,2′″″″″,2″″″″″,2′″″″″″,2″″″″″″, 2′″″″″″″,2″″″″″″″, 2′″″″″″″″,2″″″″″″″″,2′″″″″″″″″-{ethane-1,2-diylcarbamoyl-1,4-diazepane-6,1,4-triyltris[(2-oxoethane-2,1-diyl)imino(1-oxopropane-1,2-diyl)-1,4,7,10-tetraazacyclododecane-10,1,4,7-tetrayl]}octadecaacetate [Example 5]” displayed a Solubility in “Water solubility” of over 1100 mmol Gd/L. In data set [1], the “r1 FBS” value stood at 14.6 L/mmol/s, the r1 human plasma came to 14.3 L/mmol/s and the r1 water was 13.0 L/mmol/s. For the same compound, in data set [3], the r1 human plasma is 12.4 ± 0.2 L/mmol/s and the r1 water was 10.8 ± 0.3 L/mmol/s.
